From BindingDB's records for doi:10.1021/jm0303352 (National Center For Genetic Engineering and Biotechnology …, 2004)

Key:
[1] = In vitro antimalarial activity against Plasmodium falciparum TM4/8.2 wtDHFR
[2] = In vitro antimalarial activity against Plasmodium falciparum K1CB1 double DHFR mutant (C59R/S108N)
[3] = In vitro antimalarial activity relative to trimethoprim against Plasmodium falciparum TM4/8.2 wtDHFR
[4] = In vitro antimalarial activity against Plasmodium falciparum Csl-2 triple DHFR mutant (C59R/S108N/I164L)/
[5] = In vitro antimalarial activity against Plasmodium falciparum Vl/S with quadruple DHFR mutant (N51I/C59R/S108N/I164L)
[6] = In vitro antimalarial activity against Plasmodium falciparum K1CB1 double DHFR mutation (C59R/S108N) relative to trimethoprim
[7] = In vitro antimalarial activity against Plasmodium falciparum Csl-2 triple DHFR mutant (C59R/S108N/I164L) relative to trimethoprim
[8] = In vitro antimalarial activity relative to trimethoprim against Plasmodium falciparum Vl/S with quadruple DHFR mutant (N51I/C59R/S108N/I164L)

Compound	IC50 [1]	IC50 [2]	IC50 ratio [3]	IC50 [4]	IC50 [5]	IC50 ratio [6]	IC50 ratio [7]	IC50 ratio [8]
COc1ccc(Cc2cnc(N)nc2N)cc1OCc1ccccc1 [5-(3-Benzyloxy-4-methoxy-benzyl)-pyrimidine-2,4-diamine]	17.5 µM	3.83 µM	2.62	5.73 µM	> 50 µM	0.03	0.05	0.25
COc1cc(Cc2c(C)nc(N)nc2N)ccc1OCc1ccccc1 [5-(4-(benzyloxy)-3-methoxybenzyl)-6-methylpyrimidine-2,4-diamine]	6.84 µM	25.2 µM	1.03	2.85 µM	4.82 µM	0.18	0.02	–
CCc1nc(N)nc(N)c1Cc1ccc(OCc2ccccc2)c(OC)c1 [5-(4-Benzyloxy-3-methoxy-benzyl)-6-ethyl-pyrimidine-2,4-diamine]	5.06 µM	16.3 µM	0.76	5.37 µM	11.3 µM	0.12	0.05	–
COc1cc(Cc2cnc(N)nc2N)ccc1OCc1cc(OC)c(OC)c(OC)c1 [5-[3-Methoxy-4-(3,4,5-trimethoxy-benzyloxy)-benzyl]-pyrimidine-2,4-diamine]	0.31 µM	27.8 µM	0.05	30.6 µM	26.1 µM	0.13	0.26	–
